The IC50 is the concentration needed to halve the response being measured.

Where a name gives a salt, the structure may show the parent alone.

In the test the target is T1, GPR6 receptor (Homo sapiens, UniProt P46095).
T1 construct: expressed in transfected cells
The test is described as follows: Inhibition of cAMP Activity of GPR6 In Vitro Assay (CHO-K1 cells, HTRF cAMP). Format: cell-based. To be noted: compounds of Compound Table 1; inhibition of constitutive cAMP activity of GPR6 expressed in CHO-K1 cells; approximate IC50; read-out: IC50. The protocol:
Inhibition of cAMP Activity of GPR6 In Vitro Assay
This cell based assay measures the ability of compounds to inhibit the constitutive cAMP activity of GPR6 receptor expressed in CHO-K1 cells. CHO cells were stably expressed with GPR6 receptor, whose expression is controlled by a tetracycline inducable element. The cells were cultured in medium containing F12K, 10% FBS, 1% Penn/Strep, 200 ug/mL Hygromycin. GPR6 receptor expression was induced for 20 hrs with 1 μg/ml doxycycline (sigma D9891) in growth media. After addition of doxycycline cells were plated at a density of 250-500 cells per well in half-volume black clear bottom plates (Costar) and place in an incubator (37°, 5% C(O)2) for 20 hours prior to cAMP assays.
Culture media was removed from cells and they were washed with 50 μL of Ringer's Buffer (MgCl2 0.047 mg/mL, NaH2PO4 0.18 mg/mL, Na2HPO4 0.1 mg/mL, KCl 0.34 mg/mL, NaHC(O)3 1.26 mg/mL, D-glucose 1.8 mg/mL, NaCl 7 mg/mL; pH=7.4). Compounds suspended in DMSO were diluted in Ringer's Buffer containing 0.5% fatty acid free BSA and incubated on cells for 45 min at […] and 5% C(O)2. After incubation cells were incubated for 10 min at room temp with Eu-cAMP tracer solution from a Perkin Elmer Lance HTRF UltracAMP assay kit (TRF0264). Then ULight™-anti-cAMP solution from the Lance HTRF kit was added and incubated on a shaker at room temp for 1 hour prior to HTRF detection in a BMG PolarStar Omega.
IC50 curves were generated with a four-parameter logistic equation using GraphPad Prism 5.03.
On the technique in general: Time-resolved FRET reads energy transfer from a long-lived donor to a nearby acceptor.

T1 sequence (P46095 whole entry): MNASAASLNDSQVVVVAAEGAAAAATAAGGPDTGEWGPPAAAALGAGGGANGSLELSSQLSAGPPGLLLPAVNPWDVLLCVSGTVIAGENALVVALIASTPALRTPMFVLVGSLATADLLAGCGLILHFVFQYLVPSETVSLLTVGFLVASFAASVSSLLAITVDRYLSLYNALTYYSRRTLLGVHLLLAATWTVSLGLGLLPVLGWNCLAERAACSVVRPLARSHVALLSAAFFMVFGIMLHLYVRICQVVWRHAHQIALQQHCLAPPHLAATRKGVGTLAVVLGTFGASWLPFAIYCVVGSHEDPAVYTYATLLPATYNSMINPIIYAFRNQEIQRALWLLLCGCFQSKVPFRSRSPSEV

Consider “2-(4-(4-chloro-2-fluorophenoxy)piperidin-1-yl)-3-(isopropylamino)quinoxaline-6-carbonitrile, hydrogen chloride salt [Cpd 626]”, for which the half-inhibitory concentration (IC50) turned out to be 90 nM.

Turning to “2-(4-(2,4-difluorophenoxy)piperidin-1-yl)-N-isopropylpyrido[3,4-b]pyrazin-3-amine [Cpd 656]”, the IC50 is 14 nM.

Turning to “N-cyclopropyl-3-(4-(2,4-difluorobenzyl)piperidin-1-yl)pyrido[3,4-b]pyrazin-2-amine, 2,2,2-trifluoroacetic acid salt [Cpd 414]”, the 50% inhibitory concentration (IC50) came to 390 nM.

Take `N#Cc1cccc(CN2CCN(c3nc4ccccc4nc3NC3CC3)CC2)c1` [Cpd 95, 3-((4-(3-(cyclopropylamino)quinoxalin-2-yl)piperazin-1-yl)methyl)benzonitrile, 2,2,2-trifluoroacetic acid salt]: the IC50 came out at 22200 nM.

As for “(2-chloro-6-fluorophenyl)(1-(2-(cyclopropylamino)pyrido[3,4-b]pyrazin-3-yl)piperidin-4-yl)methanone [Cpd 575]”, the IC50 came to 6750 nM.

Consider `Fc1ccc(F)c(CN2CCN(c3nc4ccccc4nc3NC3CC3)CC2)c1` [Cpd 81, N-cyclopropyl-3-(4-(2,5-difluorobenzyl)piperazin-1-yl)quinoxalin-2-amine, 2,2,2-trifluoroacetic acid salt], for which the 50% inhibitory concentration (IC50) is 4580 nM.

`O=C(c1cc(Cl)ccc1Cl)N1CCN(c2nc3ccccc3nc2NC2CCCC2)CC1` [Cpd 39, (4-(3-(cyclopentylamino)quinoxalin-2-yl)piperazin-1-yl)(2,5-dichlorophenyl)methanone, 2,2,2-trifluoroacetic acid salt]: the IC50 was found to be 6150 nM.

As to “3-fluoro-4-((1-(3-(isopropylamino)pyrazino[2,3-d]pyridazin-2-yl)piperidin-4-yl)oxy)benzonitrile, 2,2,2-trifluoroacetic acid salt [Cpd 639]”, the IC50 was determined as 30 nM.

With `O=C(c1ccc(F)c(Br)c1)N1CCN(c2nc3ccccc3nc2NC2CC2)CC1` [Cpd 89, (3-bromo-4-fluorophenyl)(4-(3-(cyclopropylamino)quinoxalin-2-yl)piperazin-1-yl)methanone, 2,2,2-trifluoroacetic acid salt], the concentration for half-maximal inhibition (IC50) amounted to 4780 nM.

Regarding “(S)-3-(cyclopropylamino)-2-(4-((2,4-difluorophenyl)fluoromethyl)piperidin-1-yl)pyrido[3,4-b]pyrazine-7-carbonitrile [Cpd 550]”, the IC50 was determined as 17 nM.

Turning to “(1-(2-(cyclopropylamino)pyrido[3,4-b]pyrazin-3-yl)piperidin-4-yl)(3-fluorophenyl)methanone, 2,2,2-trifluoroacetic acid salt [Cpd 568]”, the IC50 is 2180 nM.

“3-fluoro-4-((1-(3-(isopropylamino)pyrazino[2,3-d]pyridazin-2-yl)piperidin-4-yl)oxy)phenol, 2,2,2-trifluoroacetic acid salt [Cpd 648]”: the half-maximal inhibitory concentration (IC50) was determined as 65 nM.

As for “2-(cyclopropylamino)-3-(4-((2,4-difluorophenyl)fluoromethyl)piperidin-1-yl)quinoxaline-6-carbonitrile, 2,2,2-trifluoroacetic acid salt [Cpd 480]”, the IC50 stood at 72 nM.

Consider “4-((1-(2-(cyclopropylamino)pyrido[3,4-b]pyrazin-3-yl)piperidin-4-yl)oxy)-3-fluorophenol, 2,2,2-trifluoroacetic acid salt [Cpd 615]”, for which the IC50 was found to be 88 nM.

Consider “3-(4-(2,5-dichlorobenzyl)piperazin-1-yl)-N-(tetrahydro-2H-pyran-4-yl)quinoxalin-2-amine, 2,2,2-trifluoroacetic acid salt [Cpd 171]”, for which the IC50 was determined as 1570 nM.

In the case of “(S)—N-cyclopropyl-3-(4-((2,4-difluorophenyl)fluoromethyl)piperidin-1-yl)-7-methylpyrido[3,4-b]pyrazin-2-amine, 2,2,2-trifluoroacetic acid salt [Cpd 502]”, the IC50 turned out to be 1430 nM.

Take “(1-(2-(cyclopropylamino)pyrido[3,4-b]pyrazin-3-yl)piperidin-4-yl)(2-fluoro-5-(methylthio)phenyl)methanone, 2,2,2-trifluoroacetic acid salt [Cpd 593]”: the concentration for half-maximal inhibition (IC50) worked out at 23 nM.

In the case of “(S)-(2-(cyclopropylamino)-3-(4-((2,4-difluorophenyl)fluoromethyl)piperidin-1-yl)pyrido[3,4-b]pyrazin-7-yl)(morpholino)methanone, 2,2,2-trifluoroacetic acid salt [Cpd 579]”, the IC50 is 10 nM.

Consider “N-cyclopropyl-3-(4-(3-methoxyphenoxy)piperidin-1-yl)pyrido[3,4-b]pyrazin-2-amine, 2,2,2-trifluoroacetic acid salt [Cpd 558]”, for which the IC50 amounted to 1940 nM.

Take “N-cyclopropyl-3-(4-(pyridin-4-yloxy)piperidin-1-yl)pyrido[3,4-b]pyridin-2-amine [Cpd 554]”: the concentration for half-maximal inhibition (IC50) is 190 nM.

For the molecule “(S)—N-cyclopropyl-3-(4-((2,4-difluorophenyl)fluoromethyl)piperidin-1-yl)pyrazino[2,3-d]pyridazin-2-amine, 2,2,2-trifluoroacetic acid salt [Cpd 594]”, the IC50 was 31 nM.

Consider “N-cyclopropyl-3-(4-((5-methylisoxazol-3-yl)methyl)piperazin-1-yl)quinoxalin-2-amine, 2,2,2-trifluoroacetic acid salt [Cpd 158]”, for which the IC50 was determined as 440 nM.

For `Clc1ccc(Cl)c(CN2CCN(c3nc4ncccc4nc3NC3CC3)CC2)c1` [Cpd 63, N-cyclopropyl-3-(4-(2,5-dichlorobenzyl)piperazin-1-yl)pyrido[2,3-b]pyrazin-2-amine], the IC50 was 1130 nM.

Take “3-(4-((2-chloro-4-(trifluoromethyl)phenyl)sulfonyl)piperazin-1-yl)-2-(cyclopropylamino)quinoxaline-6-carbonitrile, 2,2,2-trifluoroacetic acid salt [Cpd 330]”: the IC50 was 29 nM.

Consider “N2-cyclopropyl-3-(4-(2-fluoro-4-methoxyphenoxy)piperidin-1-yl)-N5,N5-dimethylpyrido[3,4-b]pyrazine-2,5-diamine, 2,2,2-trifluoroacetic acid salt [Cpd 607]”, for which the half-maximal inhibitory concentration (IC50) stood at 43 nM.

Take “2-(cyclopropylamino)-3-(4-(2-fluoro-4-methoxyphenoxy)piperidin-1-yl)pyrido[3,4-b]pyrazine-5-carbonitrile, 2,2,2-trifluoroacetic acid salt [Cpd 605]”: the IC50 worked out at 36 nM.

Take “N-cyclopropyl-3-(4-(2-fluoro-4-(methylthio)phenoxy)piperidin-1-yl)pyrazino[2,3-d]pyridazin-2-amine, 2,2,2-trifluoroacetic acid salt [Cpd 618]”: the IC50 amounted to 12 nM.

As to “1-(4-((1-(2-(cyclopropylamino)pyrido[3,4-b]pyrazin-3-yl)piperidin-4-yl)oxy)phenyl)ethanone, 2,2,2-trifluoroacetic acid salt [Cpd 582]”, the IC50 was 7 nM.

On to “(R)-2-((3-(4-(2,5-dichlorobenzyl)piperazin-1-yl)quinoxalin-2-yl)amino)propan-1-ol, 2,2,2-trifluoroacetic acid salt [Cpd 172]”, for which the IC50 came out at 2340 nM.

With “(1-(2-(cyclopropylamino)pyrido[3,4-b]pyrazin-3-yl)piperidin-4-yl)(thiophen-2-yl)methanone, 2,2,2-trifluoroacetic acid salt [Cpd 573]”, the IC50 amounted to 2800 nM.

Consider `Cc1cccc(CN2CCN(c3nc4ncccc4nc3NC3CC3)CC2)c1` [Cpd 3, N-cyclopropyl-3-(4-(3-methylbenzyl)piperazin-1-yl)pyrido[2,3-b]pyrazin-2-amine], for which the IC50 was 24600 nM.

As to “(S)—N-cyclopropyl-3-(4-((2,4-difluorophenyl)fluoromethyl)piperidin-1-yl)-5-methylpyrido[3,4-b]pyrazin-2-amine, 2,2,2-trifluoroacetic acid salt [Cpd 516]”, the IC50 came to 29 nM.

Regarding “(3-bromo-4-methylphenyl)(4-(3-(cyclopropylamino)quinoxalin-2-yl)piperazin-1-yl)methanone, 2,2,2-trifluoroacetic acid salt [Cpd 154]”, the 50% inhibitory concentration (IC50) worked out at 720 nM.

Regarding “N-cyclohexyl-3-(4-(2,5-dichlorobenzyl)piperazin-1-yl)quinoxalin-2-amine, 2,2,2-trifluoroacetic acid salt [Cpd 170]”, the IC50 came out at 4070 nM.

“(4-chloro-2-fluorophenyl)(4-(2-((2,2-difluoroethyl)amino)pyrido[3,4-b]pyrazin-3-yl)piperazin-1-yl)methanone, 2,2,2-trifluoroacetic acid salt [Cpd 369]”: the IC50 was 400 nM.

As to “2-((2,2-difluoroethyl)amino)-3-(4-(2,4-difluorophenoxy)piperidin-1-yl)-N,N-dimethylpyrido[3,4-b]pyrazine-7-carboxamide, 2,2,2-trifluoroacetic acid salt [Cpd 649]”, the IC50 is 44 nM.

For the origin of these results see US9770452B2, “Quinoxaline derivatives as GPR6 modulators” (Takeda Pharmaceutical Company Limited, priority 2012, dated 2017).
